In this experiment the target is Beta-3 Adrenergic Receptor (Homo sapiens (Human), UniProt P13945). The experiment can be described thus: Homogeneous Time-Resolved Fluorescence (HTRF) cAMP antagonist assay, IC50 determination. In kind it is cell-based. As to conditions: CHO-K1 cells stably expressing recombinant receptor, isoproterenol at EC90. The method, boiled down:
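Antagonist mode: isoproterenol at its predetermined EC90 added after compound to recombinant CHO-K1 cells in IBMX-containing PBS, 1 h, room temperature. Compounds tested as 5-fold, 10-point dilutions, top final typically 10 or 100 μM. HTRF signal converted to cAMP via standard curve, giving IC50.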
(In general: In TR-FRET formats the signal depends on donor and acceptor labels being close together.)
Sequence of Beta-3 Adrenergic Receptor (P13945 whole entry, species assumed): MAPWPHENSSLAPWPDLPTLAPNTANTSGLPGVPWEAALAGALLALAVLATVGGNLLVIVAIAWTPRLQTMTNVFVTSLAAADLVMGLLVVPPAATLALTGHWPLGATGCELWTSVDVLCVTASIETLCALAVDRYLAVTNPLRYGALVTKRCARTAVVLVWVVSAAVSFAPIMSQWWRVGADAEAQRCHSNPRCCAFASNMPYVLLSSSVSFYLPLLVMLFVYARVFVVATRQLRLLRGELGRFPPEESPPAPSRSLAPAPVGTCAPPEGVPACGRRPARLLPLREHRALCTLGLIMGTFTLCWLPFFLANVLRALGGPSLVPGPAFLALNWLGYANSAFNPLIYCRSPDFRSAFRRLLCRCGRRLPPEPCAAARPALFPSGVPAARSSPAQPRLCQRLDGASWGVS
As for `CNS(=O)(=O)c1cccc(OC[C@@H](O)CNC2COC3(CCN(S(=O)(=O)c4ccc(C(=O)N(C)C)cc4)CC3)C2)c1` (stereo partly drawn) [Compound 24, 4-(3-((S)-2-hydroxy-3-(3-(N-methylsulfamoyl)phenoxy)propylamino)-1-oxa-8-azaspiro[4.5]decan-8-ylsulfonyl)-N,N-dimethylbenzamide], the IC50 came to 106 nM.
Next, `CNS(=O)(=O)c1cccc(OC[C@@H](O)CNC2COC3(CCN(S(=O)(=O)c4c(Cl)nc5sccn45)CC3)C2)c1` (stereo partly drawn) [Compound 129, 3-((2S)-3-(8-(6-chloroimidazo[2,1-b]thiazol-5-ylsulfonyl)-1-oxa-8-azaspiro[4.5]decan-3-ylamino)-2-hydroxypropoxy)-N-methylbenzenesulfonamide]: 24.9 nM; `CNS(=O)(=O)c1cccc(OC[C@@H](O)CNC2COC3(CCN(S(=O)(=O)c4cccc(-c5ccnc(C)c5)c4)CC3)C2)c1` (stereo partly drawn) [Compound 107, 3-((2S)-2-hydroxy-3-(8-(3-(2-methylpyridin-4-yl)phenylsulfonyl)-1-oxa-8-azaspiro[4.5]decan-3-ylamino)propoxy)-N-methylbenzenesulfonamide]: 10.9 nM; `CNS(=O)(=O)c1cccc(OC[C@@H](O)CNC2COC3(CCN(S(=O)(=O)c4ccc(Cl)s4)CC3)C2)c1` (stereo partly drawn) [Compound 181, 3-((2S)-3-(8-(5-chlorothiophen-2-ylsulfonyl)-1-oxa-8-azaspiro[4.5]decan-3-ylamino)-2-hydroxypropoxy)-N-methylbenzenesulfonamide]: 24.3 nM.
Next, `CNS(=O)(=O)c1cccc(OC[C@@H](O)CNC2COC3(CCN(S(=O)(=O)c4ccc(Oc5ccccc5)nc4)CC3)C2)c1` (stereo partly drawn) [Compound 130, 3-((2S)-2-hydroxy-3-(8-(6-phenoxypyridin-3-ylsulfonyl)-1-oxa-8-azaspiro[4.5]decan-3-ylamino)propoxy)-N-methylbenzenesulfonamide]: 8.32 nM; `CNS(=O)(=O)c1cccc(OC[C@@H](O)CNC2COC3(CCN(S(=O)(=O)c4ccc(OC)c(Cl)c4)CC3)C2)c1` (stereo partly drawn) [Compound 207, 3-((2S)-3-(8-(3-chloro-4-methoxyphenylsulfonyl)-1-oxa-8-azaspiro[4.5]decan-3-ylamino)-2-hydroxypropoxy)-N-methylbenzenesulfonamide]: 8.79 nM; `CCn1cc(-c2cccc(S(=O)(=O)N3CCC4(CC3)CC(NC[C@H](O)COc3cccc(S(=O)(=O)NC)c3)CO4)c2)cn1` (stereo partly drawn) [Compound 69, 3-((2S)-3-(8-(3-(1-ethyl-1H-pyrazol-4-yl)phenylsulfonyl)-1-oxa-8-azaspiro[4.5]decan-3-ylamino)-2-hydroxypropoxy)-N-methylbenzenesulfonamide]: 21.1 nM.
Next, `CNS(=O)(=O)c1cccc(OC[C@@H](O)CN[C@H]2COC3(CCN(c4nccc(C(F)(F)F)n4)CC3)C2)c1` [Compound 574, 3-((S)-2-hydroxy-3-((R)-8-(4-(trifluoromethyl)pyrimidin-2-yl)-1-oxa-8-azaspiro[4.5]decan-3-ylamino)propoxy)-N-methylbenzenesulfonamide]: 609 nM.
For `CNS(=O)(=O)c1cccc(OC[C@@H](O)CN[C@H]2COC3(CCN(S(=O)(=O)c4cnn(-c5ccccc5)c4C)CC3)C2)c1` [Compound 281, 3-((S)-2-hydroxy-3-((R)-8-(5-methyl-1-phenyl-1H-pyrazol-4-ylsulfonyl)-1-oxa-8-azaspiro[4.5]decan-3-ylamino)propoxy)-N-methylbenzenesulfonamide], the IC50 came out at 10.7 nM.
Next, `CCN1CCC(NS(=O)(=O)c2cccc(OC[C@@H](O)CNC3COC4(CCN(S(=O)(=O)c5ccc6ccccc6c5)CC4)C3)c2)CC1` (stereo partly drawn) [Compound 165, N-(1-ethylpiperidin-4-yl)-3-((2S)-2-hydroxy-3-(8-(naphthalen-2-ylsulfonyl)-1-oxa-8-azaspiro[4.5]decan-3-ylamino)propoxy)benzenesulfonamide]: 311 nM; `CNS(=O)(=O)c1cccc(OC[C@@H](O)CN[C@H]2COC3(CCN(S(=O)(=O)c4ccc5[nH]ncc5c4OC)CC3)C2)c1` [Compound 508, 3-((S)-2-hydroxy-3-((R)-8-(4-methoxy-1H-indazol-5-ylsulfonyl)-1-oxa-8-azaspiro[4.5]decan-3-ylamino)propoxy)-N-methylbenzenesulfonamide]: 211 nM.
Then `CNS(=O)(=O)c1cccc(OC[C@@H](O)CNC2COC3(CCN(S(=O)(=O)c4cccc(-c5ccc(CNCCNC(C)=O)cc5)c4)CC3)C2)c1` (stereo partly drawn) [Compound 348, N-(2-((3′-(3-((S)-2-hydroxy-3-(3-(N-methylsulfamoyl)phenoxy)propylamino)-1-oxa-8-azaspiro[4.5]decan-8-ylsulfonyl)biphenyl-4-yl)methylamino)ethyl)acetamide], with 36.7 nM; and `CCn1cc(S(=O)(=O)N2CCC3(CC2)C[C@@H](NC[C@H](O)COc2cccc(S(N)(=O)=O)c2)CO3)c(=O)c2ccc(C)cc21` [Compound 557, 3-((S)-3-((R)-8-(1-ethyl-7-methyl-4-oxo-1,4-dihydroquinolin-3-ylsulfonyl)-1-oxa-8-azaspiro[4.5]decan-3-ylamino)-2-hydroxypropoxy)benzenesulfonamide], with 83.9 nM.
Then `CC(C)NCc1ccc(-c2cccc(S(=O)(=O)N3CCC4(CC3)C[C@@H](NC[C@H](O)COc3cccc(S(N)(=O)=O)c3)CO4)c2)cc1` [Compound 440, 3-((S)-2-hydroxy-3-((R)-8-(4′-((isopropylamino)methyl)biphenyl-3-ylsulfonyl)-1-oxa-8-azaspiro[4.5]decan-3-ylamino)propoxy)benzenesulfonamide], with 112 nM; and `CNS(=O)(=O)c1cccc(OC[C@@H](O)CNC2COC3(CCN(S(=O)(=O)c4ccc(Br)c(Cl)c4)CC3)C2)c1` (stereo partly drawn) [Compound 155, 3-((2S)-3-(8-(4-bromo-3-chlorophenylsulfonyl)-1-oxa-8-azaspiro[4.5]decan-3-ylamino)-2-hydroxypropoxy)-N-methylbenzenesulfonamide], with 4.36 nM.
With `CNS(=O)(=O)c1cccc(OC[C@@H](O)CNC2COC3(CCN(S(=O)(=O)c4ccc(C)cc4)CC3)C2)c1` (stereo partly drawn) [Compound 53, 3-((2S)-2-hydroxy-3-(8-tosyl-1-oxa-8-azaspiro[4.5]decan-3-ylamino)propoxy)-N-methylbenzenesulfonamide], the half-maximal inhibitory concentration (IC50) came to 21.8 nM.
Then `CNS(=O)(=O)c1cccc(OC[C@@H](O)CN[C@H]2COC3(CCN(c4cnccn4)CC3)C2)c1` [Compound 586, 3-((S)-2-hydroxy-3-((R)-8-(pyrazin-2-yl)-1-oxa-8-azaspiro[4.5]decan-3-ylamino)propoxy)-N-methylbenzenesulfonamide], with 762 nM; and `CCOc1ccc(S(=O)(=O)N2CCC3(CC2)CC(NC[C@H](O)COc2cccc(S(=O)(=O)NC)c2)CO3)cn1` (stereo partly drawn) [Compound 445, 3-((2S)-3-(8-(6-ethoxypyridin-3-ylsulfonyl)-1-oxa-8-azaspiro[4.5]decan-3-ylamino)-2-hydroxypropoxy)-N-methylbenzenesulfonamide], with 30.4 nM; and `COCCNS(=O)(=O)c1cccc(OC[C@@H](O)CNC2COC3(CCN(S(=O)(=O)c4ccc5ccccc5c4)CC3)C2)c1` (stereo partly drawn) [Compound 13, 3-((2S)-2-hydroxy-3-(8-(naphthalen-2-ylsulfonyl)-1-oxa-8-azaspiro[4.5]decan-3-ylamino)propoxy)-N-(2-methoxyethyl)benzenesulfonamide], with 28.7 nM.
Next, `CCn1cc(S(=O)(=O)N2CCC3(CC2)C[C@@H](NC[C@H](O)COc2cccc(S(=O)(=O)NC)c2)CO3)c(=O)c2cc(C)ccc21` [Compound 535, 3-((S)-3-((R)-8-(1-ethyl-6-methyl-4-oxo-1,4-dihydroquinolin-3-ylsulfonyl)-1-oxa-8-azaspiro[4.5]decan-3-ylamino)-2-hydroxypropoxy)-N-methylbenzenesulfonamide]: 43.9 nM; `CNS(=O)(=O)c1cccc(OC[C@@H](O)CN[C@H]2COC3(CCN(S(=O)(=O)c4ccc(OC)c(-c5ccc(C6(N)CC6)cc5)c4)CC3)C2)c1` [Compound 464, 3-((S)-3-((R)-8-(4′-(1-aminocyclopropyl)-6-methoxybiphenyl-3-ylsulfonyl)-1-oxa-8-azaspiro[4.5]decan-3-ylamino)-2-hydroxypropoxy)-N-methylbenzenesulfonamide]: 13.9 nM.
With `CNS(=O)(=O)c1cccc(OC[C@@H](O)CNC2COC3(CCN(S(=O)(=O)c4ccc(OC)c(C)c4C)CC3)C2)c1` (stereo partly drawn) [Compound 242, 3-((2S)-2-hydroxy-3-(8-(4-methoxy-2,3-dimethylphenylsulfonyl)-1-oxa-8-azaspiro[4.5]decan-3-ylamino)propoxy)-N-methylbenzenesulfonamide], the 50% inhibitory concentration (IC50) came out at 420 nM.
Next, `O=S(=O)(NCCO)c1cccc(OC[C@@H](O)CNC2COC3(CCN(S(=O)(=O)c4ccc5ccccc5c4)CC3)C2)c1` (stereo partly drawn) [Compound 12, 3-((2S)-2-hydroxy-3-(8-(naphthalen-2-ylsulfonyl)-1-oxa-8-azaspiro[4.5]decan-3-ylamino)propoxy)-N-(2-hydroxyethyl)benzenesulfonamide]: 31.7 nM.
Next, `CN(C)S(=O)(=O)c1cccc(OC[C@@H](O)CNC2COC3(CCN(S(=O)(=O)c4ccc(-c5ccccc5)s4)CC3)C2)c1` (stereo partly drawn) [Compound 255, 3-((2S)-2-hydroxy-3-(8-(5-phenylthiophen-2-ylsulfonyl)-1-oxa-8-azaspiro[4.5]decan-3-ylamino)propoxy)-N,N-dimethylbenzenesulfonamide]: 55.1 nM; `CNS(=O)(=O)c1cccc(OC[C@@H](O)CN[C@H]2COC3(CCN(c4nccc(OC)n4)CC3)C2)c1` [Compound 568, 3-((S)-2-hydroxy-3-((R)-8-(4-methoxypyrimidin-2-yl)-1-oxa-8-azaspiro[4.5]decan-3-ylamino)propoxy)-N-methylbenzenesulfonamide]: 411 nM.

In general, IC50 refers to the point on the concentration scale where inhibition reaches its midpoint.

The record behind these values is US11987588B2, “Modulators of the beta-3 adrenergic receptor useful for the treatment or prevention of heart failure and disorders related thereto” (Arena Pharmaceuticals, Inc., priority 2017, dated 2024).
